For two molecules, EC50 and solubility results are on record in patent EP4789670A1, “PREPARATION CONTAINING URACIL DERIVATIVE” (Shionogi & Co., Ltd, priority 2023, dated 2025).

≈ marks a conversion by molar mass, not a printed value.

In one data set the test system is SARS-CoV-2. The data set is described as follows: Cytopathic effect (CPE) suppression effect confirmation test using HEK293T/ACE2-TMPRSS2 cells. Particulars: Severe acute respiratory syndrome coronavirus 2, HEK-293T, 72 h, SARS-CoV-2 200-600 TCID50/well, cultured 3 days, CellTiter-Glo 2.0, read-out: 50% SARS-CoV-2 infected cell death inhibitory concentration (EC50). In kind it is cell-based. Here is the method: Test Example 1: Cytopathic Effect (CPE) Suppression Effect Confirmation Test Using HEK293T Cells Expressing Human TMPRSS2, ACE2 (HEK293T/ACE2-TMPRSS2 Cells)
The sample to be tested is diluted in advance to an appropriate concentration with DMSO, and a 2- to 5-fold series of serial dilutions is prepared and then dispensed into a 384-well plate.
HEK293T/ACE2-TMPRSS2 cells (GCP-SL222, 5×10^3 cells/well) and SARS-CoV-2 (200-600 TCID50/well) are mixed in a medium (MEM, 2% FBS, penicillin-streptomycin), the mixture is dispensed into the wells in which the sample to be tested has been introduced, and then the cells are cultured for 3 days in a CO2 incubator.
The plate that has been cultured for 3 days is returned to room temperature, subsequently CellTiter-Glo (registered trademark) 2.0 is dispensed into each well, and the plate is mixed using a plate mixer. After standing for a predetermined period of time, the luminescence signal (Lum) is measured using a plate reader.

Another data set in a line: physchem. In kind it is physicochemical. Here is the method: The solid dispersion obtained in Example 4D and the anhydrous crystal alone of the compound represented by Formula (I) (Example 4F-1) were added to various test media to prepare suspensions of 30 to 50 mL. The prepared suspensions were placed in centrifuge tubes and shaken at a shaking speed of 100 rpm or higher. After 60 minutes from the start of shaking, 5 mL of each suspension was collected and immediately filtered through a filter (Chromadisc, 0.45 µm, 25A) to obtain test samples.

By solubility is commonly meant the dissolved amount per volume that the medium holds. Higher therefore signals much dissolved substance.

As for `N#CCn1c(N2CC3(C2)CC(F)(F)C3)c(-c2ccc(F)c(Cl)c2)c(=O)n(-c2cncc(Cl)c2)c1=O` [Compound (I)], the EC50 in the data set on SARS-CoV-2 turned out to be 1.66 nM.

Consider `N#CCn1c(N2CC3(C2)CC(F)(F)C3)c(-c2ccc(F)c(Cl)c2)c(=O)n(-c2cncc(Cl)c2)c1=O` [Example 4F-1], for which the solubility at 1 h was 0.64 µg/mL (≈ 1.23 µM) in “physchem” (diluted mcilvaine buffer, pH 4); 1.08 µg/mL (≈ 2.07 µM) in the data set “physchem” (jp first dissolution test medium, pH 1.2); 0.61 µg/mL (≈ 1.17 µM) in “physchem” (jp second dissolution test medium, pH 6.8); 0.71 µg/mL (≈ 1.36 µM) in “physchem” (purified water).
